According to paper PMC11760891, “Discovery and Characterization of Two Selective Inhibitors for a Mu-Class Glutathione S-Transferase of 25 kDa from Taenia solium Using Computational and Bioinformatics Tools” (Biomolecules, 2024):

What was measured:
HGSTM1 = molecular target: T1, HGSTM1 (Homo sapiens, UniProt P09488); assay: GSH-CDNB conjugation, absorbance […] nm, single concentration; type: biochemical
T1 construct: gene GSTM1; commercial human GST M1 (Oxford Biomedical Research GS65)
T1 sequence (P09488 2-218): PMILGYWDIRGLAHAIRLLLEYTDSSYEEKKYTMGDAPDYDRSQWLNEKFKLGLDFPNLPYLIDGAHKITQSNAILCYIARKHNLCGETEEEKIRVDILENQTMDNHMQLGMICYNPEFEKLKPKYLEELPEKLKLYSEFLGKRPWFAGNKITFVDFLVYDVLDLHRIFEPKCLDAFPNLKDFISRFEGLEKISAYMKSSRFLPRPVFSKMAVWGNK

Ts25GST = molecular target: T2, Ts25GST (Taenia solium, UniProt Q8MWS0); assay: GSH-CDNB conjugation, absorbance […] nm, dose-response; type: biochemical
T2 construct: about 25 kDa on SDS-PAGE; dimer; no tag mentioned
T2 sequence (Q8MWS0 1-219): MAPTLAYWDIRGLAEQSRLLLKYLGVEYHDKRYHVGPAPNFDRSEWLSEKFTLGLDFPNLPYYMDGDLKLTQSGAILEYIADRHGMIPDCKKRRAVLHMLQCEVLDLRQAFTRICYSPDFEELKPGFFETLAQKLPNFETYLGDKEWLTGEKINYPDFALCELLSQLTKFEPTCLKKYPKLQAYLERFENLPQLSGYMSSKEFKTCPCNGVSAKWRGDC

Compound | inhibition at 40 µM (HGSTM1) [%] | IC50 (Ts25GST) [µM]
O=C(CSc1ncc(-c2ccccc2)nn1)NC1=NN=C(c2ccccc2)CS1 [i11] | 33.4 ± 2.2 | 
O=C(CCN1C(=O)c2ccccc2C1=O)Nc1ccc(Nc2ccccc2)cc1 [i15] | 30.8 ± 1.9 | 25.7 ± 1.1
